Laboratory results published in patent US20250333405A1, “ANTAGONISTS OF GPR39 PROTEIN” (VASOCARDEA, INC., priority 2024, published 2025).

Molecular target: T1, human GPR39 receptor (Homo sapiens, UniProt O43194)
T1 construct: PC3 Cells, Expressing the Endogenous Human GPR39 Receptor; endogenous in cells; host or cells: PC3 (human prostate adenocarcinoma) cells
T1 sequence (O43194 1-453): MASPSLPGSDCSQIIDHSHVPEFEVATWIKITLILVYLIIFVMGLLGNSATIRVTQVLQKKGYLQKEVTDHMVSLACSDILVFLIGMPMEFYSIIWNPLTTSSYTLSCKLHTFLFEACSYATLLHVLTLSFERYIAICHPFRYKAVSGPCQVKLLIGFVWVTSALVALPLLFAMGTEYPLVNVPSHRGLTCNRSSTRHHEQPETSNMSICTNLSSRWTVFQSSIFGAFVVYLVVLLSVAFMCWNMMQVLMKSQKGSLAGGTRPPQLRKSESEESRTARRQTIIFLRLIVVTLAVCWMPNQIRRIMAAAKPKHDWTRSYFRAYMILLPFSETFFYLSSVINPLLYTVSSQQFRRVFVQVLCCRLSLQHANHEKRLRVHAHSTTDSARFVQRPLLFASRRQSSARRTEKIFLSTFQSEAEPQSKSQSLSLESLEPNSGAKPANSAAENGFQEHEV
Test: Intracellular calcium response (FLIPR, Calcium-6) in PC3 cells, antagonism of agonist C3 (TC-G 1008) at EC90
Type: cell-based
Settings: functional pKi (-Log10Ki) by modified Cheng-Prusoff from IC50; PC3 cells endogenously expressing human GPR39; 30 μM ZnCl2; agonist C3 (TC-G 1008) at EC90 1.5 μM; read-out: fpKi activity
Method: Measurement of Intracellular Calcium Response in PC3 Cells, Expressing the Endogenous Human GPR39 Receptor
Human prostate adenocarcinoma (PC3) cells endogenously expressing human GPR39 receptor were seeded into black walls clear-base 384-well plates at a density of 7,500 cells per well in DMEM (Low Glucose) supplemented with 10% heat-inactivated foetal bovine serum and 1% of Pen/Strep and grown overnight at 37° C., 5% CO2. After washing with assay buffer (20 mM HEPES, 137 mM NaCl, 5.4 mM KCl, 10 mM glucose, 0.8 mM MgSO4, 1.3 mM CaCl2), 0.3 mM Na2HPO4, 0.4 mM KH2PO4 4.2 mM NaHCO3, pH 7.4), cells were incubated with Calcium-6 probe (Molecular Devices) at 37° C. for 2 h and then equilibrated at RT for 30 minutes on metal block. The fluorescence was measured in real time by Fluorometric Imaging Plate Reader (FLIPR TETRA, Molecular Devices) (excitation wavelength at 470-495 nm, emission wavelength at 515-575 nm). Compounds of invention were serially diluted in neat DMSO at 1000 fold concentrations and plated into 384-well plates and then 200-fold diluted in assay buffer containing 150 μM ZnCl2 (30 μM final concentration) and 1.1% DMSO (0.32% final concentration). A dual addition FLIPR protocol was used which included a first addition of compounds 200-fold diluted in Assay Buffer containing 150 μM ZnCl2 and 1.1% DMSO and then after 10 minutes a second addition of a submaximal concentration of the hGPR39 receptor agonist, C3 (Tocris, TC-G 1008) at EC90 (concentration producing 90% of the maximal response) value of 1.5 μM. Fluorescence was monitored throughout the run assay. The peak of Ca2+ stimulation (baseline subtracted) was expressed as percentage of the maximal inhibition of the EC90 C3 response and was plotted versus the concentration of test compound. Curve fitting and IC50 estimations are carried out using a four-parameter logistic model using XLfit Software. […] An fpKi less than 5.2 is reported as “+/−”. An fpKi ranging from 5.2 to 5.9 is reported as “+”. An fpKi from 6.0 to 6.5 is reported as “++”. An fpKi from 6.6 to 7.2 is reported as “+++”. An fpKi equal to or greater than 7.3 is reported as “++++”.

Ki | Compound
> 6.31 µM | CN1CCN(C(=O)c2cc(Cl)c(NC(=O)C3CC3)cc2N2CCCC2)C(c2ccccc2)C1 (centres unmarked) [Example 95, N-[2-chloro-4-(4-methyl-2-phenylpiperazine-1-carbonyl)-5-pyrrolidin-1-ylphenyl]cyclopropanecarboxamide]
> 6.31 µM | O=C(Nc1ccc(C(=O)N2CCS(=O)(=O)CC2)c(C2CCCC2)c1)C1CC1 [Example 90, N-[3-cyclopentyl-4-(1,1-dioxo-1,4-thiazinane-4-carbonyl)phenyl]cyclopropanecarboxamide]
> 6.31 µM | CC(=O)Nc1ccc(-c2nccc(N3CCCC3)n2)c(N2CCCC2)c1 [Example 101, N-[3-pyrrolidin-1-yl-4-(4-pyrrolidin-1-ylpyrimidin-2-yl)phenyl]acetamide]
1.26 to 6.31 µM | O=C(Nc1cc(N2CCCC2)c(C(=O)N2CCS(=O)(=O)CC2)cc1Cl)C1CC1 [Example 96, N-[2-chloro-4-(1,1-dioxo-1,4-thiazinane-4-carbonyl)-5-pyrrolidin-1-ylphenyl]cyclopropanecarboxamide]
> 6.31 µM | Cc1nc2cc(N3CCCC3)c(C(=O)N3CCN(C)CC3c3ccccc3)cc2[nH]1 (centres unmarked) [Example 114, (4-methyl-2-phenylpiperazin-1-yl)-(2-methyl-6-pyrrolidin-1-yl-3H-benzimidazol-5-yl)methanone]
0.316 to 1 µM | CN1CCN(C(=O)c2ccc(NC(=O)C3CC3)c(Cl)c2N2CCCC2)C(c2ccccc2)C1 (centres unmarked) [Example 97, N-[2-chloro-4-(4-methyl-2-phenylpiperazine-1-carbonyl)-3-pyrrolidin-1-ylphenyl]cyclopropanecarboxide]
≤ 0.0501 µM | Cc1nnc(-c2ccc(C(=O)N3CCC(F)(F)CC3)c(-n3ccc(C(C)(C)C)n3)c2)[nH]1 [Example 122, [2-(3-tert-butylpyrazol-1-yl)-4-(5-methyl-4H-1,2,4-triazol-3-yl)phenyl]-(4,4-difluoropiperidin-1-yl)methanone]
0.0631 to 0.251 µM | Cc1cccc(C2CN(C)CCN2C(=O)c2ccc(NC(=O)C3CC3)cc2N2CCCC2)c1 (racemic) [Example 111, N-[4-[4-methyl-2-(3-methylphenyl)piperazine-1-carbonyl]-3-pyrrolidin-1-ylphenyl]cyclopropanecarboxamide]
0.316 to 1 µM | O=C(Nc1ccc(C(=O)N2CCS(=O)(=O)CC2)c(N2CCCC2)c1Cl)C1CC1 [Example 98, N-[2-chloro-4-(1,1-dioxo-1,4-thiazinane-4-carbonyl)-3-pyrrolidin-1-ylphenyl]cyclopropanecarboxamide]

More lines, now with the values behind:

Compound | Ki
Cc1nnc(-c2ccc(C(=O)N3CCC(F)(F)CC3)c(-c3cccc(C(C)(C)C)n3)c2)[nH]1 [Example 79, [2-(6-tert-butyl-2-pyridyl)-4-(5-methyl-4H-1,2,4-triazol-3-yl)phenyl]-(4,4-difluoro-1-piperidyl)methanone] | ≤ 0.0501 µM
O=C(Nc1ccc(C(=O)N2CCS(=O)(=O)CC2)c(-c2cnc(C(F)(F)F)s2)c1)C1CC1 [Example 27, N-[4-(1,1-dioxo-1,4-thiazinane-4-carbonyl)-3-[2-(trifluoromethyl)-1,3-thiazol-5-yl]phenyl]cyclopropanecarboxamide] | 1.26 to 6.31 µM
CCCN1CCN(C(=O)c2ccc(NC(=O)C3CC3)cc2-c2ccn(C(C)C)n2)CC1 [Example 24, N-[3-(1-propan-2-ylpyrazol-3-yl)-4-(4-propylpiperazine-1-carbonyl)phenyl]cyclopropanecarboxamide] | ≤ 0.0501 µM
Cc1cc(Nc2ccc(C(=O)N3CCN(C)CC3c3ccccc3)c(N3CCCC3)c2)on1 (racemic) [Example 18, [4-[(3-methyl-1,2-oxazol-5-yl)amino]-2-pyrrolidin-1-ylphenyl]-(4-methyl-2-phenylpiperazin-1-yl)methanone] | 1.26 to 6.31 µM
Cc1nnc(-c2ccc(C(=O)N3CCC4(CC3)CC4)c(-c3ccn(C(C)C)n3)c2)[nH]1 [Example 50, 6-azaspiro[2.5]octan-6-yl-[4-(5-methyl-4H-1,2,4-triazol-3-yl)-2-(1-propan-2-ylpyrazol-3-yl)phenyl]methanone] | ≤ 0.0501 µM
Cc1nnc(-c2ccc(C(=O)N3CCC4(CCO4)CC3)c(-c3ccn(C(C)C)n3)c2)[nH]1 [Example 41, [2-(1-isopropylpyrazol-3-yl)-4-(5-methyl-4H-1,2,4-triazol-3-yl)phenyl]-(1-oxa-7-azaspiro[3.5]nonan-7-yl)methanone] | ≤ 0.0501 µM
Cc1nnc(-c2ccc(C(=O)N3CCC(F)(F)CC3)c(-c3ccn(C4COC4)n3)c2)[nH]1 [Example 60, (4,4-difluoro-1-piperidyl)-[4-(5-methyl-4H-1,2,4-triazol-3-yl)-2-[1-(oxetan-3-yl)pyrazol-3-yl]phenyl]methanone] | ≤ 0.0501 µM
Cc1nnc(-c2ccc(C(=O)N3CCC(OC(F)(F)F)CC3)c(-c3ccn(C(C)C)n3)c2)[nH]1 [Example 56, 1-[4-(5-methyl-4H-1,2,4-triazol-3-yl)-2-[1-(propan-2-yl)-1H-pyrazol-3-yl]benzoyl]-4-(trifluoromethoxy) piperidine] | ≤ 0.0501 µM
Cc1nnc(-c2ccc(C(=O)N3CCC(C(F)(F)F)CC3)c(-c3ccn(C(C)(C)C)n3)c2)[nH]1 [Example 53, [2-(1-tert-butylpyrazol-3-yl)-4-(5-methyl-4H-1,2,4-triazol-3-yl)phenyl]-[4-(trifluoromethyl)-1-piperidyl]methanone] | ≤ 0.0501 µM
CN1CCN(C(=O)c2ccc(NC(=O)C3CC3)cc2-c2cnc(C(F)(F)F)s2)C(c2ccccc2)C1 (racemic) [Example 31, N-[4-(4-methyl-2-phenylpiperazine-1-carbonyl)-3-[2-(trifluoromethyl)-1,3-thiazol-5-yl]phenyl]cyclopropanecarboxamide] | > 6.31 µM
Cc1nnc(-c2ccc(C(=O)N3CCC(F)(F)CC3)c(-c3ccn(C(C)(C)C)n3)c2)[nH]1 [Example 54, [2-(1-tert-butylpyrazol-3-yl)-4-(5-methyl-4H-1,2,4-triazol-3-yl)phenyl]-(4,4-difluoropiperidin-1-yl)methanone] | ≤ 0.0501 µM
O=C(Nc1ccc(C(=O)N2CCS(=O)(=O)CC2)c(-c2ccc(C(F)(F)F)s2)c1)C1CC1 [Example 29, N-[4-(1,1-dioxo-1,4-thiazinane-4-carbonyl)-3-[5-(trifluoromethyl)thiophen-2-yl]phenyl]cyclopropanecarboxamide] | 0.316 to 1 µM
CCn1ccc(-c2cc(-c3nnc(C)[nH]3)ccc2C(=O)N2CCC(F)(F)CC2)n1 [Example 59, (4,4-difluoro-1-piperidyl)-[2-(1-ethylpyrazol-3-yl)-4-(5-methyl-4H-1,2,4-triazol-3-yl)phenyl]methanone] | ≤ 0.0501 µM
Cc1nnc(-c2ccc(C(=O)N3CCC(F)(F)CC3)c(-c3cccc(C(F)(F)F)n3)c2)[nH]1 [Example 75, (4,4-difluoropiperidin-1-yl)-[4-(5-methyl-4H-1,2,4-triazol-3-yl)-2-[6-(trifluoromethyl)pyridin-2-yl]phenyl]methanone] | ≤ 0.0501 µM
O=C(Nc1ccc(C(=O)N2CC3CCC(C2)O3)c(N2CCCC2)c1)C1CC1 [Example 6, N-[4-(8-oxa-3-azabicyclo[3.2.1]octane-3-carbonyl)-3-pyrrolidin-1-ylphenyl]cyclopropanecarboxamide] | 0.316 to 1 µM
CCn1nccc1-c1cc(-c2nnc(C)[nH]2)ccc1C(=O)N1CCC(F)(F)CC1 [Example 44, (4,4-difluoropiperidin-1-yl)-[2-(2-ethylpyrazol-3-yl)-4-(5-methyl-4H-1,2,4-triazol-3-yl)phenyl]methanone] | 1.26 to 6.31 µM
Cc1nnc(-c2ccc(C(=O)N3CCC(F)(F)CC3)c(-c3nc(C(F)(F)F)cs3)c2)[nH]1 [Example 76, (4,4-difluoro-1-piperidyl)-[4-(5-methyl-4H-1,2,4-triazol-3-yl)-2-[4-(trifluoromethyl)thiazol-2-yl]phenyl]methanone] | ≤ 0.0501 µM
